Data: US20040106148A1, “Polypeptides” (priority 2000, published 2004)
“And” between values parts separate entries of the source, which are not always exact repeats. Identical values can stand only once.

Columns and labels:
Assay in all cases: Surface plasmon resonance (BIACore), GST fusion binding to phosphoinositide in supported lipid monolayer
[1] = molecular target: T1, human TAPP1, full length (FL-TAPP1, accession AF286160), wild type, GST fusion (Homo sapiens, UniProt Q9HB21, T320A); settings: supported phosphatidylcholine monolayers, 1:1 binding model, NB, no binding detected, read-out: Apparent Kd
T1 construct: made in house; host or cells: human embryonic kidney 293 cells (pEBG-2T)
Protocol: (§1) Expression of GST-PH domains in human embryonic kidney 293 cells. […] For the expression of each construct, twenty 10 cm diameter dishes of 293 cells were cultured and each dish transfected with 5 μg of the pEBG-2T construct, using a modified calcium phosphate method. 36 h post-transfection, the cells were lysed in 1 ml of ice-cold Buffer A, the lysates pooled, centrifuged at 4° C. for 10 min at 13,000×g and the GST-fusion proteins were purified by affinity chromatography on glutathione-Sepharose and stored as described above.
(§2) Cloning TAPP1, TAPP2, FAPP1 and PEPP1. Full length human TAPP1, full length mouse TAPP2, partial mouse TAPP1, partial human TAPP2, and full length human and mouse FAPP1 sequences were deduced by sequencing the EST clones listed in Table 3. […] The constructs used to express full length and deletion mutants of TAPP1 and TAPP2 were generated by PCR, using as a template ESTs encoding full length human TAPP1 (accession number AI216176) and full length mouse TAPP2 (accession number AA111410). […]
(§3) Kinetic analyses of the interactions between the GST PH domain fusions and the polyphosphoinositides were made using surface plasmon resonance based procedures as described previously, with the following modifications. […] Data were analysed using the bimolecular interaction model and the global fitting feature of the BIAevaluation 3 software for several sensorgrams at different protein concentrations. […] The relative binding affinities of each protein relative to the binding of full length GST-TAPP1 to PtdIns(3,4)P2 were also calculated.
(§4) We studied the specificity and affinity of interaction of the PH domains for phosphoinositide lipids using either a “protein-lipid overlay” assay (FIG. 2) or the more quantitative surface plasmon resonance based approach (Table 2). […] For the surface plasmon resonance based assay, the apparent Kd values of the GST PH domain fusion proteins resulting from their interaction with a supported lipid monolayer containing a low mole fraction of phosphoinositide, was determined (Table 2).

[2] = molecular target: T2, human TAPP1, full length, mutant R28L (FL-TAPP1 [R28L]), GST fusion (Homo sapiens, UniProt Q9HB21, R28L/T320A); settings: supported phosphatidylcholine monolayers, 1:1 binding model, read-out: Apparent Kd
T2 construct: wild type and mutant forms of full length (FL); made in house; host or cells: human embryonic kidney 293 cells (pEBG-2T)
Protocol: as §1, §2, §3, §4

[3] = molecular target: T3, mouse TAPP2, full length (FL-TAPP2, accession AF286161), wild type, GST fusion (Mus musculus, UniProt Q9ERS5); settings: supported phosphatidylcholine monolayers, 1:1 binding model, NB, no binding detected, read-out: Apparent Kd
T3 construct: made in house; host or cells: human embryonic kidney 293 cells (pEBG-2T)
Protocol: as §1, §2, §3, §4

[4] = molecular target: T4, mouse TAPP2 C-terminal PH domain (residues 174 to 425), GST fusion (Mus musculus, UniProt Q9ERS5); settings: read-out: apparent Kd
T4 construct: made in house; host or cells: human embryonic kidney 293 cells (pEBG-2T)
Description: Cloning of PH domains and preparation of expression constructs. All the human and mouse EST's were obtained from the I.M.A.G.E. Consortium and sequenced. The plant EST (accession number T04439) encoding a full length clone of AtPH1 was obtained from the Arabidopsis Biological Research. Centre (Ohio University). The sequence of each EST was verified and the full length PH domain of each EST was amplified by PCR using the Hi-fidelity PCR system with primers designed to incorporate a Kozak site, an initiating ATG codon followed by a myc epitope tag and a stop codon after the PH domain. […]
as §3

T1 sequence (Q9HB21 whole entry T320A, the tested form may be a part): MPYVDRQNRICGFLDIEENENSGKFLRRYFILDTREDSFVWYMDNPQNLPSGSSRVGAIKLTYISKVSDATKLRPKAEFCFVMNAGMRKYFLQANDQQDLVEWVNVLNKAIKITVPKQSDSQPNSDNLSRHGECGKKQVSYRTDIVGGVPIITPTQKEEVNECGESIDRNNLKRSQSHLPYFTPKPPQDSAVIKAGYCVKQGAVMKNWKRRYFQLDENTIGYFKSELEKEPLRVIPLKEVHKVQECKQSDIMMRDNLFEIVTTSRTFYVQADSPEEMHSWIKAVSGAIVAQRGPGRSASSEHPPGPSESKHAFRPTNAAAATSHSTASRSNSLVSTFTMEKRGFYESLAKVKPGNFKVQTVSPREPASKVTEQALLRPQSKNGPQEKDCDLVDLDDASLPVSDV
T4 sequence (Q9ERS5 174-425): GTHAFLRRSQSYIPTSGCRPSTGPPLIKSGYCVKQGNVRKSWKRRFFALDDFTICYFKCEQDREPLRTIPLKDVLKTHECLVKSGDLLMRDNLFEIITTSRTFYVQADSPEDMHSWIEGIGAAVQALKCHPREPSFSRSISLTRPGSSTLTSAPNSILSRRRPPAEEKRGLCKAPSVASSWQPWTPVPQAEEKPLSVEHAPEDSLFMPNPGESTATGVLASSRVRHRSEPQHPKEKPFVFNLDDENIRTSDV
T2 sequence (Q9HB21 whole entry R28L/T320A, the tested form may be a part): as the sequence (Q9HB21 whole entry T320A, the tested form may be a part) above, with R28L counted along it
T3 sequence (Q9ERS5 whole entry, the tested form may be a part): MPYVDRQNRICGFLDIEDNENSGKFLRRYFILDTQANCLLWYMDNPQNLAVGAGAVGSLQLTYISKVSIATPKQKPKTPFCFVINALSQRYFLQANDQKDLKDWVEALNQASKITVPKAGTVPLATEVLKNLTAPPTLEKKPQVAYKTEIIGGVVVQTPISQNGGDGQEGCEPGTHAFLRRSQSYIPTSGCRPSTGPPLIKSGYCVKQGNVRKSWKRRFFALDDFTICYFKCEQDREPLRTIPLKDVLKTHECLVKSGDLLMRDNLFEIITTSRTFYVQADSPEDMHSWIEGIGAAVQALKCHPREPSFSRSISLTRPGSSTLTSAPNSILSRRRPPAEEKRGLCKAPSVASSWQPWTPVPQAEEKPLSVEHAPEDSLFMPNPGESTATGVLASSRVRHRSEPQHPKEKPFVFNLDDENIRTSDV

With CCCCCCCCCCCCCCCC(=O)OC[C@H](COP(=O)(O)O[C@H]1[C@H](O)[C@@H](O)[C@H](OP(=O)(O)O)[C@@H](OP(=O)(O)O)[C@H]1O)OC(=O)CCCCCCCCCCCCCCC [PtdIns(3,4)P2] the Kd [1] was 5 nM and ~5 nM, the Kd [2] was 28 nM and the Kd [3] was 30 nM. The Kd [4] was 30 nM.
